The species named for one assay is Mus musculus. The assay is described as follows: Compound was evaluated for the inhibition of Con A (concanavalin A) stimulated murine thymocyte mitogenesis. It counts as functional.
Another assay concerns P815. The experiment in a line: Compound was evaluated for the inhibition of cell growth in mouse P-815 mastocytoma cells. The class given is functional. The note with it: read-out: ED50 (the source's name).

≈ marks a conversion by molar mass, not a printed value.

Consider `C[C@@H]1NC(=O)[C@H](C)NC(=O)[C@@H]2CCCN2C(=O)[C@H](CCCCCC(=O)C=[N+]=[N-])NC1=O`, for which, in the assay filed under Mus musculus, the IC50 (in general, the concentration needed to halve the response being measured) is above 2 µg/mL.

With `CC1(C)NC(=O)[C@H](CCCCCC(=O)CCl)NC(=O)[C@H]2CCCN2C(=O)[C@H](Cc2ccccc2)NC1=O`, the IC50 in the assay filed under Mus musculus came to 0.01 µg/mL (≈ 0.0188 µM).

As for `C[C@@H]1NC(=O)[C@H](Cc2ccccc2)NC(=O)[C@@H]2CCCN2C(=O)[C@H](CCCCCC(=O)CCl)NC1=O`, in the assay filed under Mus musculus, 0.1 µg/mL (≈ 0.193 µM) corresponded to half-maximal inhibition (IC50). Still for that read-out and setting: the figure for `C[C@@H]1NC(=O)[C@H](C)NC(=O)[C@@H]2CCCN2C(=O)[C@H](CCCCCC(=O)CCl)NC1=O` is 0.04 µg/mL (≈ 0.0903 µM). Regarding `CC1(C)NC(=O)[C@H](CCCCCC(=O)[C@H]2CO2)NC(=O)[C@H]2CCCN2C(=O)[C@H](Cc2ccccc2)NC1=O` [CHLAMYDOCIN], the EC50 in the assay on P815 came out at 0.00036 µg/mL (≈ 0.000684 µM). In the assay listed under Mus musculus, inhibition was half-maximal at 0.003 µg/mL (≈ 0.0057 µM) (IC50).

Source of the values: ChEMBL document CHEMBL1123912, “Analogues of the cytostatic and antimitogenic agents chlamydocin and HC-toxin: synthesis and biological activity of chloromethyl ketone and diazomethyl ketone functionalized cyclic tetrapeptides” (J Med Chem, 1987).
